Measurements reported in patent US9707220B2 (The United States of America, as represented by the …, priority 2005, dated 2017).
Where “and” joins values, the source holds several entries; their conditions need not be identical. Equal values may be shown once. Marks after values point to notes of the source that are not given here.

Experiments:
Format in all cases: in vivo, human
[1] = tested on: unmedicated, currently depressed patients meeting the DSM-IV criteria for Major Depressive Disorder (MDD) or Bipolar Disorder (BD); test: Example 2: double-blind, placebo-controlled, randomized cross-over study, MADRS depression severity
Text: (§1) Session one was designed to be single-blind during which all subjects received a placebo infusion to allow for a baseline evaluation. The next six sessions were separated into two blocks of three sessions each; one block included a series of three placebo infusions (P Block) and the other a series of three scopolamine infusions (S Block). Individuals were randomized into either the P/S (placebo/scopolamine) series or the S/P (scopolamine/placebo) series, using a double-blind design. In total, all subjects received four placebo infusions and three scopolamine infusions. Prior to infusion, unstructured psychiatric interviews were completed using the Montgomery & Asberg Depression Rating Scale (MADRS) and the Hamilton Anxiety Scale to provide evaluations of depression and anxiety severity upon entering the study (i.e., baseline 1); following the first infusion as an assessment of placebo effects (i.e., baseline 2); after all infusions associated with block 1 (i.e., last evaluation block 1); and after all infusions associated with block 2 (i.e., last evaluation block 2) obtained during a follow-up psychiatric interview. Sessions were scheduled a minimum of 3 days apart and a maximum of 5 days apart when possible.
(§2) Patient diagnosis and features that contribute to prognosis, including history of response to conventional treatment, chronicity and comorbid anxiety disorders, are summarized in Table III.
(§3) Session one was designed to be single-blind during which all subjects received a placebo infusion to allow for a baseline evaluation in all subjects. Subsequently, individuals were randomized into either an P/S or S/P double-blind design whereby P is defined as a series of three sessions during which participants received placebo and S is defined as a series of three sessions during which participants received scopolamine. […] Prior to each infusion, unstructured psychiatric interviews were completed using the MADRS and the Hamilton Anxiety Scale. Sessions were scheduled a minimum of 3 days apart and a maximum of 5 days apart when possible. Follow-up psychiatric interviews were obtained to assess the effects of session seven. […] Repeated measures ANOVA was used to evaluate session differences, group differences and session X group effects. In the presence of significant ANOVA results, t-tests were used for within and between group comparisons to identify specific effects.

[2] = tested on: unmedicated, currently depressed patients meeting criteria for Major Depressive Disorder (MDD) or Bipolar Disorder (BD); test: Example 1: double-blind randomized dose-finding study, 15-minute intravenous scopolamine infusions, MADRS depression severity in patients; parameters: key to MADRS score, Follow-up / MADRS score, Session 3, Pt. MEAN / MADRS score, Session 4, Pt. MEAN / MADRS score, Follow-up, Pt. MEAN / MADRS score, Post 2 μg/kg / MADRS score, Post 3 μg/kg / MADRS score, Post 4 μg/kg / MADRS score, Post 2 μg/kg, MEAN / MADRS score, Post 3 μg/kg, MEAN: Montgomery & Asberg Depression Rating Scale (MADRS) total score
Method: Prior to each infusion, a psychiatric interview was performed using the Montgomery & Asberg Depression Rating Scale (MADRS) to monitor depression severity across sessions. Participants were monitored continuously for the development of clinically relevant side effects. Sessions were scheduled a minimum of 3 days apart and a maximum of 5 days apart when possible. Follow-up psychiatric interviews were obtained when patients were available.
Comparisons also were made between MADRS scores obtained before and after each specific dose. […] Post evaluations for the last session were provided by the follow-up psychiatric interviews when available.

[3] = tested on: unmedicated, currently depressed patients meeting the DSM-IV criteria for Major Depressive Disorder (MDD) or Bipolar Disorder (BD); test: Example 2: double-blind, placebo-controlled, randomized cross-over study, Hamilton Anxiety Scale
Text: as §1, §2, §3

[4] = 4.0 μg/kg iv, three infusions, p<0.005
[5] = both treatment groups, no change following placebo

With `CN1C2C[C@H](OC(=O)C(CO)c3ccccc3)CC1[C@H]1OC21` (stereo partly shown) [scopolamine] as the molecule, how does the “MADRS depression severity, P/S group at end of Block 2 (scopolamine) vs baseline measures and end of Block 1” value [1, 4] read?
The value was “significantly lower”.

And the “MADRS depression severity, S/P group at end of Block 1 (scopolamine) vs baseline 1 and baseline 2” value [1, 4]?
Its value is “significantly lower”.

And the “MADRS depression severity, S/P group vs P/S group at last evaluation of Block 1” value ([1]; 4.0 μg/kg iv, three infusions, t=5.3, p<0.0001)?
Its value is “significantly lower”.

What about the “Depressive symptoms (mean MADRS scores, FIG. 2) following treatment” value [1, 5] of the same molecule?
Its value is “significant improvement”.

What about the “MADRS depression severity, S/P group at end of Block 2 (placebo after scopolamine) vs baseline measures” value ([1]; persistence of effect, p<0.005) of the same molecule?
Its value is “significantly lower”.

What about the “MADRS score, Follow-up” value ([2]; individual patient, follow-up interview after all four sessions) of the same molecule?
Its value is 37 and 16 and 2 and 9 and 14.

What about the “MADRS score, Session 2” value ([2]; individual patient, scored before the Session 2 infusion, after the Session 1 dose, iv 2, 3 or 4 μg/kg or placebo in random order, sessions 3-5 days apart) of the same molecule?
Its value is 36^d and 44^a and 25^a and 32^C and 18^b and 29^C and 15^d.

What about the “MADRS score, Session 3” value ([2]; individual patient, scored before the Session 3 infusion, after two earlier sessions, doses in random order) of the same molecule?
The value was 35^b and 34^d and 31^b and 4^C and 25^a and 14^a and 22^d and 7^a.

What about the “MADRS score, Session 4” value ([2]; individual patient, scored before the Session 4 infusion, after three earlier sessions, doses in random order) of the same molecule?
Its value is 35^a and 22^b and 32^d and 8^d and 28^d and 11^d and 17^a and 7^b.

What about the “MADRS score, Post 2 μg/kg” value ([2]; individual patient, scored in the next session, 3 to 5 days after 2 μg/kg iv) of the same molecule?
The value was 37 and 32 (2×) and 4 and 14 and 29 and 35.

What about the “MADRS score, Post 3 μg/kg” value ([2]; individual patient, scored in the next session, 3 to 5 days after 3 μg/kg iv) of the same molecule?
The value was 44 and 25 (2×) and 8 and 18 and 22 and 15 and 36.

And the “MADRS score, Post 4 μg/kg” value ([2]; individual patient, scored in the next session, 3 to 5 days after 4 μg/kg iv)?
Its value is 22 and 16 and 2 and 9 and 14 and 17 and 7 and 35.

And the “MADRS score, Session 3, Pt. MEAN” value ([2]; mean of 8 patients, irrespective of session dose)?
The value was 21.5.

What about the “MADRS score, Session 4, Pt. MEAN” value ([2]; mean of 8 patients, irrespective of session dose, significantly less than baseline, p < 0.05) of the same molecule?
The value was 20.0*.

And the “MADRS score, Follow-up, Pt. MEAN” value ([2]; mean of patients with follow-up, significantly less than baseline, p < 0.05)?
Its value is 15.6*.

And the “MADRS scores post 4.0 μg/kg compared to baseline and pre-4.0 μg/kg measures” value ([2]; p=0.0015 vs baseline, p=0.018 vs pre-dose)?
Its value is “significantly lower”.

What about the “MADRS scores following session four compared to session one baseline” value ([2]; patient group, post-hoc t-test, p=0.01) of the same molecule?
The value was “significantly lower”.

What about the “MADRS scores following session three compared to session one baseline” value ([2]; patient group, post-hoc t-test, p=0.03) of the same molecule?
Its value is “significantly lower”.

What about the “Antidepressant effect, MADRS across sessions (summary)” value ([2]; patient group, effect primarily after the 4.0 μg/kg dose) of the same molecule?
The value was “robust and rapid antidepressant effects”.

And the “MADRS score, Post 2 μg/kg, MEAN” value ([2]; patient mean, baseline mean 29.00, pre-dose mean 22.38)?
Its value is 26.14.

And the “MADRS score, Post 4 μg/kg, MEAN” value ([2]; patient mean, baseline mean 29.00, pre-dose mean 23.25, p = 0.0015 vs baseline, p = 0.018 vs pre-session)?
Its value is 15.25^#*.

What about the “MADRS score, Post 3 μg/kg, MEAN” value ([2]; patient mean, baseline mean 29.00, pre-dose mean 27.63) of the same molecule?
The value was 24.13.

And the “MADRS scores post 2.0 and 3.0 μg/kg compared to baseline and pre-dose” value ([2]; t-tests, patient group)?
The value was “No other differences were significant”.

And the “Hamilton Anxiety rating, P/S group at end of Block 2 (scopolamine) vs baseline 1, baseline 2 and end of Block 1” value ([3]; 4.0 μg/kg iv, three infusions, p<0.001, p=0.02, p=0.002)?
Its value is “significantly lower”.

And the “Hamilton Anxiety rating, S/P group at end of Block 1 (scopolamine) vs baseline measures” value ([3]; 4.0 μg/kg iv, three infusions, p<0.01)?
Its value is “significantly lower”.

What about the “Hamilton Anxiety score, S/P group vs P/S group at last evaluation of Block 1” value ([3]; 4.0 μg/kg iv, three infusions, t=7.29, p=0.04) of the same molecule?
Its value is “significantly lower”.

And the “Anxiety symptoms (mean Hamilton Anxiety scores, FIG. 3) following treatment” value [3, 5]?
Its value is “significant improvement”.

And the “Hamilton Anxiety rating, S/P group at end of Block 2 (placebo after scopolamine) vs baseline” value ([3]; persistence of effect, p=0.01)?
The value was “significantly lower”.
